In PubChem BioAssay AID256 (DTP/NCI, 2004):
“And” between values parts separate entries of the source, which are not always exact repeats. Equal entries are not always repeated. Toxic doses and inconclusive results are not listed.

System: CD2F1 mice, L1210 leukemia ip, survival T/C
Test: NCI In Vivo Anticancer Drug Screen. Data for tumor model L1210 Leukemia (intraperitoneal) in CD2F1 (CDF1) mice
Settings: higher = longer survival
Procedure, shortened: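 Vehicle-treated tumor-bearing mice served as controls (C) for compound-treated mice (T). Reported figure is T divided by C.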

[1] = endpoint: mean survival time, dose: 50.0 mg/kg/injection, schedule: Q01DX009 (ip), vehicle: saline with Tween-80
[2] = endpoint: mean survival time, dose: 100.0 mg/kg/injection, schedule: Q01DX001 (ip), vehicle: saline with Tween-80
[3] = endpoint: mean survival time, dose: 100.0 mg/kg/injection, schedule: Q01DX009 (ip), vehicle: saline with Tween-80
[4] = endpoint: mean survival time, dose: 100.0 mg/kg/injection, schedule: Q04DX002 (ip), vehicle: saline with Tween-80
[5] = endpoint: mean survival time, dose: 100.0 mg/kg/injection, schedule: Q04DX003 (ip), vehicle: saline with Tween-80
[6] = endpoint: mean survival time, dose: 200.0 mg/kg/injection, schedule: Q01DX001 (ip), vehicle: saline with Tween-80
[7] = endpoint: mean survival time, dose: 200.0 mg/kg/injection, schedule: Q01DX009 (ip), vehicle: saline with Tween-80
[8] = endpoint: mean survival time, dose: 200.0 mg/kg/injection, schedule: Q04DX002 (ip), vehicle: saline with Tween-80
[9] = endpoint: mean survival time, dose: 200.0 mg/kg/injection, schedule: Q04DX003 (ip), vehicle: saline with Tween-80
[10] = endpoint: mean survival time, dose: 400.0 mg/kg/injection, schedule: Q01DX001 (ip), vehicle: saline with Tween-80
[11] = endpoint: mean survival time, dose: 400.0 mg/kg/injection, schedule: Q04DX002 (ip), vehicle: saline with Tween-80
[12] = endpoint: mean survival time, dose: 25.0 mg/kg/injection, schedule: Q01DX009 (ip), vehicle: water
[13] = endpoint: mean survival time, dose: 75.0 mg/kg/injection, schedule: Q01DX001 (ip), vehicle: saline
[14] = endpoint: mean survival time, dose: 150.0 mg/kg/injection, schedule: Q01DX001 (ip), vehicle: saline
[15] = endpoint: mean survival time, dose: 300.0 mg/kg/injection, schedule: Q01DX001 (ip), vehicle: saline
[16] = endpoint: mean survival time, dose: 400.0 mg/kg/injection, schedule: Q04DX003 (ip), vehicle: saline with Tween-80
[17] = endpoint: mean survival time, dose: 400.0 mg/kg/injection, schedule: Q01DX009 (ip), vehicle: saline with Tween-80

CCOC(=O)c1ccc(NC(=O)NC(Cc2ccccc2)c2ccccc2)cc1 (stereo unspecified)
T/C (endpoint: mean survival time, dose: 25.0 mg/kg/injection, schedule: Q04DX003 (ip), vehicle: saline with Tween-80): 111 % of control
T/C (endpoint: mean survival time, dose: 50.0 mg/kg/injection, schedule: Q01DX001 (ip), vehicle: saline with Tween-80): 96 % of control
T/C [1]: 87 % of control and 91 % of control
T/C (endpoint: mean survival time, dose: 50.0 mg/kg/injection, schedule: Q04DX003 (ip), vehicle: saline with Tween-80): 104 % of control
T/C [2]: 96 % of control
T/C [3]: 87 % of control
T/C [4]: 91 % of control
T/C [5]: 89 % of control and 106 % of control
T/C [6]: 94 % of control
T/C [7]: 87 % of control and 90 % of control
T/C [8]: 87 % of control and 88 % of control
T/C [9]: 101 % of control
T/C [10]: 94 % of control
T/C [11]: 86 % of control

Cn1ccc(=Nc2ccc(NC(=O)c3ccc(N=c4ccn(C)c5ccc([N+](=O)[O-])cc45)cc3)cc2)cc1
T/C (endpoint: mean survival time, dose: 1.56 mg/kg/injection, schedule: Q01DX009 (ip), vehicle: water): 106 % of control
T/C (endpoint: mean survival time, dose: 3.13 mg/kg/injection, schedule: Q01DX009 (ip), vehicle: water): 112 % of control
T/C (endpoint: mean survival time, dose: 6.25 mg/kg/injection, schedule: Q01DX009 (ip), vehicle: water): 124 % of control
T/C (endpoint: mean survival time, dose: 12.5 mg/kg/injection, schedule: Q01DX009 (ip), vehicle: water): 181 % of control
T/C [12]: 227 % of control

CCCCNC(C)(C)C(SSSC(c1ccco1)C(C)(C)NCCCC)c1ccco1 (stereo unspecified)
T/C (endpoint: mean survival time, dose: 12.5 mg/kg/injection, schedule: Q01DX009 (ip), vehicle: saline with Tween-80): 102 % of control
T/C (endpoint: mean survival time, dose: 25.0 mg/kg/injection, schedule: Q01DX009 (ip), vehicle: saline with Tween-80): 96 % of control
T/C [1]: 98 % of control

CCCCCCCN(CCCCCCC)CC(O)c1cc2ccc(Br)cc2c2cccnc12 (stereo unspecified)
T/C [3]: 95 % of control
T/C [7]: 92 % of control

Cc1ccc(N2CCN(CCCCCC(=O)O)CC2)cc1Cl
T/C [5]: 106 % of control
T/C (endpoint: mean survival time, dose: 176.0 mg/kg/injection, schedule: Q04DX003 (ip), vehicle: saline with Tween-80): 117 % of control
T/C [9]: 104 % of control
T/C (endpoint: mean survival time, dose: 264.0 mg/kg/injection, schedule: Q04DX003 (ip), vehicle: saline with Tween-80): 113 % of control

Cc1ccnc(N/C=C/c2cc[n+](C)cc2)c1
T/C [13]: 105 % of control
T/C [14]: 111 % of control
T/C [15]: 114 % of control

CC(Br)C(=O)OCc1ccccc1 (stereo unspecified)
T/C [5]: 95 % of control
T/C [9]: 95 % of control
T/C [16]: 95 % of control

CC(=O)OC1CCCCC1C (stereo unspecified)
T/C [3]: 105 % of control
T/C [5]: 105 % of control
T/C [7]: 100 % of control
T/C [9]: 110 % of control
T/C [16]: 102 % of control

N=c1c(C(=O)OCc2ccccc2)ncc(CCl)n1O
T/C (endpoint: median survival time, dose: 25.0 mg/kg/injection, schedule: Q01DX009 (ip), vehicle: saline with Tween-80): 100 % of control
T/C (endpoint: median survival time, dose: 50.0 mg/kg/injection, schedule: Q01DX009 (ip), vehicle: saline with Tween-80): 101 % of control and 102 % of control
T/C (endpoint: median survival time, dose: 100.0 mg/kg/injection, schedule: Q01DX009 (ip), vehicle: saline with Tween-80): 97 % of control and 109 % of control
T/C (endpoint: median survival time, dose: 200.0 mg/kg/injection, schedule: Q01DX009 (ip), vehicle: saline with Tween-80): 93 % of control and 97 % of control
T/C (endpoint: median survival time, dose: 400.0 mg/kg/injection, schedule: Q01DX009 (ip), vehicle: saline with Tween-80): 99 % of control and 100 % of control

NC(CS)=NCc1ccccc1
T/C (endpoint: mean survival time, dose: 6.25 mg/kg/injection, schedule: Q04DX002 (ip), vehicle: saline): 108 % of control
T/C (endpoint: mean survival time, dose: 12.5 mg/kg/injection, schedule: Q04DX002 (ip), vehicle: saline): 115 % of control
T/C (endpoint: mean survival time, dose: 25.0 mg/kg/injection, schedule: Q04DX002 (ip), vehicle: saline): 101 % of control

Cc1cc(C(O)CNC(C)CCn2cnc3c2c(=O)n(C)c(=O)n3C)ccc1O (stereo unspecified)
T/C (endpoint: mean survival time, dose: 12.5 mg/kg/injection, schedule: Q01DX005 (ip), vehicle: water): 93 % of control
T/C (endpoint: mean survival time, dose: 25.0 mg/kg/injection, schedule: Q01DX005 (ip), vehicle: water): 96 % of control
T/C (endpoint: mean survival time, dose: 50.0 mg/kg/injection, schedule: Q01DX005 (ip), vehicle: water): 96 % of control
T/C (endpoint: mean survival time, dose: 100.0 mg/kg/injection, schedule: Q01DX005 (ip), vehicle: water): 100 % of control
T/C (endpoint: mean survival time, dose: 200.0 mg/kg/injection, schedule: Q01DX005 (ip), vehicle: water): 93 % of control

O=C(O)C(/C=C/c1ccccc1)c1ccccc1 (stereo unspecified)
T/C [2]: 112 % of control
T/C [3]: 101 % of control
T/C [5]: 92 % of control
T/C [6]: 95 % of control
T/C [9]: 91 % of control
T/C [10]: 88 % of control
T/C [17]: 103 % of control
T/C [16]: 91 % of control

CCCCN=C1C(=O)Nc2ccccc21
T/C [13]: 98 % of control
T/C [14]: 97 % of control
T/C [15]: 95 % of control

Nc1ccc(C(=O)Oc2ccc([N+](=O)[O-])cc2)cc1
T/C [3]: 108 % of control
T/C [7]: 102 % of control
T/C [17]: 98 % of control

CNC(=O)c1ccc2ccccc2c1
T/C (endpoint: mean survival time, dose: 50.0 mg/kg/injection, schedule: Q01DX001 (ip), vehicle: saline): 106 % of control
T/C (endpoint: mean survival time, dose: 100.0 mg/kg/injection, schedule: Q01DX001 (ip), vehicle: saline): 95 % of control
T/C (endpoint: mean survival time, dose: 200.0 mg/kg/injection, schedule: Q01DX001 (ip), vehicle: saline): 93 % of control
T/C (endpoint: mean survival time, dose: 400.0 mg/kg/injection, schedule: Q01DX001 (ip), vehicle: saline): 95 % of control

Cc1cc(O)c(N=Nc2cccc(C(=O)O)c2)cc1C
T/C (endpoint: mean survival time, dose: 50.0 mg/kg/injection, schedule: Q01DX009 (ip), vehicle: saline): 107 % of control
T/C (endpoint: mean survival time, dose: 100.0 mg/kg/injection, schedule: Q01DX009 (ip), vehicle: saline): 96 % of control
T/C (endpoint: mean survival time, dose: 200.0 mg/kg/injection, schedule: Q01DX009 (ip), vehicle: saline): 103 % of control

CCCCOC(=O)CSSCC(=O)OCCCC
T/C [1]: 101 % of control
T/C [3]: 101 % of control
T/C [7]: 93 % of control

CCCCC(CC)C(=O)N1CCOCC1 (stereo unspecified)
T/C [3]: 96 % of control
T/C [7]: 92 % of control
T/C [17]: 86 % of control

CCC(CC)=NN(C)C
T/C [13]: 100 % of control
T/C [14]: 96 % of control
T/C [15]: 96 % of control

COc1cc2cnccc2cc1O
T/C [12]: 95 % of control
T/C (endpoint: mean survival time, dose: 50.0 mg/kg/injection, schedule: Q01DX009 (ip), vehicle: water): 101 % of control
T/C (endpoint: mean survival time, dose: 100.0 mg/kg/injection, schedule: Q01DX009 (ip), vehicle: water): 96 % of control

CCO[C@@H]1c2cc3c(cc2[C@@H](c2cc(OC)c(O)c(OC)c2)[C@H]2C(=O)OC[C@@H]21)OCO3
T/C (endpoint: median survival time, dose: 0.65 mg/kg/injection, schedule: Q01DX009 (ip), vehicle: saline with Tween-80): 108 % of control
T/C (endpoint: median survival time, dose: 1.25 mg/kg/injection, schedule: Q01DX009 (ip), vehicle: saline with Tween-80): 109 % of control
T/C (endpoint: median survival time, dose: 2.5 mg/kg/injection, schedule: Q01DX009 (ip), vehicle: saline with Tween-80): 106 % of control
T/C (endpoint: median survival time, dose: 5.0 mg/kg/injection, schedule: Q01DX009 (ip), vehicle: saline with Tween-80): 101 % of control
T/C (endpoint: median survival time, dose: 10.0 mg/kg/injection, schedule: Q01DX009 (ip), vehicle: saline with Tween-80): 100 % of control and 109 % of control
T/C (endpoint: median survival time, dose: 20.0 mg/kg/injection, schedule: Q01DX009 (ip), vehicle: saline with Tween-80): 94 % of control
T/C (endpoint: median survival time, dose: 40.0 mg/kg/injection, schedule: Q01DX009 (ip), vehicle: saline with Tween-80): 97 % of control

CC1(C)CC(O)(Cc2ccccc2)C(O)c2ccccc21 (stereo unspecified)
T/C [5]: 93 % of control
T/C [9]: 97 % of control
T/C [16]: 93 % of control

C/C=C/C=C/C(=O)c1cc(C#N)c(OC)cc1O
T/C [2]: 88 % of control
T/C [6]: 88 % of control
T/C [10]: 89 % of control

CCN(CC)C(=O)Nc1ccccc1Cl
T/C [4]: 105 % of control
T/C [8]: 108 % of control
T/C [11]: 94 % of control
